Measurements from US20250115569A1, “SULFONAMIDE COMPOUNDS FOR THE TREATMENT OF NEUROLOGICAL CONDITIONS” (LARIO THERAPEUTICS LIMITED, priority 2021, published 2025).

Target: Cav2.3 (Homo sapiens, UniProt Q15878)
Test: Human Cav2.3 channel calcium-influx assay
Assay type: cell-based
Conditions: Fluo8 fluorescence, HEK-293 T-Rex/Kir2.1/Cav2.3e cells, without pluronic acid, read-out: Cav2.3 (pIC50) (converted)
Outline: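 Signal = peak fluorescence (5–130 s) minus baseline (1–2 s), normalized to neutral (0) and inhibitor (−100) controls as % effect. Depolarization used final 20 mM KCl, 130 mM NaCl, 2 mM CaCl2, after 3 min RT compound exposure (30 μM top, half-log, 8 points, 0.3% DMSO) in doxycycline-induced HEK-293 T-Rex/Kir2.1/Cav2.3e-β4-α2δ1 cells with Fluo8 NW.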

Chain of Cav2.3 (Q15878 whole entry, looked up): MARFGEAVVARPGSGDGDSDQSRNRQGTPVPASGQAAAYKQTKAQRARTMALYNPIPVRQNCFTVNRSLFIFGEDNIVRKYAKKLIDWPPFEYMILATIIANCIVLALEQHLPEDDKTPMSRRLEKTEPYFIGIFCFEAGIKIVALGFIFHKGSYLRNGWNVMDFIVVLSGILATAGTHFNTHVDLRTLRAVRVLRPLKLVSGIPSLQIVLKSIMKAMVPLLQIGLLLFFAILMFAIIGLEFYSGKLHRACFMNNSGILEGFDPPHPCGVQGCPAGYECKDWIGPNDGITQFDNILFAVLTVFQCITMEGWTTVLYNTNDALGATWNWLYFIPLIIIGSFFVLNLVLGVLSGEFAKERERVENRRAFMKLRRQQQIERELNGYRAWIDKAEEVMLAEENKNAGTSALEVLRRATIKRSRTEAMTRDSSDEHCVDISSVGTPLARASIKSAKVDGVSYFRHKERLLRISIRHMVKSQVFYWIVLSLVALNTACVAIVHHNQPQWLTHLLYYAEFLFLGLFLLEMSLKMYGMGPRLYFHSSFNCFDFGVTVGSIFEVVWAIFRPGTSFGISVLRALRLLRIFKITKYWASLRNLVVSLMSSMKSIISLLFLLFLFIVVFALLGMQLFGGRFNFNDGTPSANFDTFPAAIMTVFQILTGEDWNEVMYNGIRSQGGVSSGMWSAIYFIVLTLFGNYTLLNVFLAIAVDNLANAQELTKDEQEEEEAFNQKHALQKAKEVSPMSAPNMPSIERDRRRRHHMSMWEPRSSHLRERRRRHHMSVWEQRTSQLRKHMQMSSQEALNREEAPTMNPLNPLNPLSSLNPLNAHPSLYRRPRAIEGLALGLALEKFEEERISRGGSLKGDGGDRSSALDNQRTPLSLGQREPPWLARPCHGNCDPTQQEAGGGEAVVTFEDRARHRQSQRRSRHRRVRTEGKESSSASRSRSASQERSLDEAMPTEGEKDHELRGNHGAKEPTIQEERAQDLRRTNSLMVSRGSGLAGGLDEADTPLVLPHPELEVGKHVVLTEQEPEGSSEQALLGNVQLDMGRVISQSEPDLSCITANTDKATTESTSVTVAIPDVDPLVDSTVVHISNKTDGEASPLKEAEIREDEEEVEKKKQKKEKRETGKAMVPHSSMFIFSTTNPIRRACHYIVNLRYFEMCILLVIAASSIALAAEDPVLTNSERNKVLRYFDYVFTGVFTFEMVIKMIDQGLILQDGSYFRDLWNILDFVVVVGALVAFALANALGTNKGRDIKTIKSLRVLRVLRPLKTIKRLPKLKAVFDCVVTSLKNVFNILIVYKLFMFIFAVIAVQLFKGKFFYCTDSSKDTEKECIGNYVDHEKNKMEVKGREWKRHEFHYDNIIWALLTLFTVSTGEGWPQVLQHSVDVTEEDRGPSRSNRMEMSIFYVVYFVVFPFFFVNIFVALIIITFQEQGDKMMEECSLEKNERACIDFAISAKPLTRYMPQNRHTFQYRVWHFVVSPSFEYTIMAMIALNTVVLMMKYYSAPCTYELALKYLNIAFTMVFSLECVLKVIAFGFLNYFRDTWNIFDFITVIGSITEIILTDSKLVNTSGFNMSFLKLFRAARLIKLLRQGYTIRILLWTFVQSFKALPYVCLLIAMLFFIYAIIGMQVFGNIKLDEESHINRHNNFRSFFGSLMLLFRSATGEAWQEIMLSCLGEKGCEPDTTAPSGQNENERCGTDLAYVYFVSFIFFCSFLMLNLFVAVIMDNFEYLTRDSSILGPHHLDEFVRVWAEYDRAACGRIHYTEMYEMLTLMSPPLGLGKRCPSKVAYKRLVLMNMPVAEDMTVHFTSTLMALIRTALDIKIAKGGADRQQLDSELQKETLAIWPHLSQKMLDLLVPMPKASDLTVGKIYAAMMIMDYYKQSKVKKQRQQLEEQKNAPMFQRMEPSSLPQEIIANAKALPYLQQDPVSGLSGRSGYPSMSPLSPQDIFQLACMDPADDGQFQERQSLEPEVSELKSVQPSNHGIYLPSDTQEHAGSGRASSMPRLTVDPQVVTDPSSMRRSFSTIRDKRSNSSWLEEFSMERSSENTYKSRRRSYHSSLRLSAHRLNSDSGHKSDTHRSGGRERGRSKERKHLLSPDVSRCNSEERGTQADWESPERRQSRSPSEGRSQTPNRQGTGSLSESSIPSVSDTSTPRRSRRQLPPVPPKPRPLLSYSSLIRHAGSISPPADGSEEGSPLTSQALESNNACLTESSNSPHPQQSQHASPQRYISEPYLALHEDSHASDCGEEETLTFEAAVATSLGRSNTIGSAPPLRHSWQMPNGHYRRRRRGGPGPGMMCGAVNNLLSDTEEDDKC

Row | Compound | IC50 [µM]
1 | CN([C@H](c1ccc(Cl)cc1)C(F)(F)F)S(=O)(=O)c1cnc2ccnn2c1 [Example 201, (R)—N-(1-(4-chlorophenyl)-2,2,2-trifluoroethyl)-N-methylpyrazolo[1,5-a]pyrimidine-6-sulfonamide] | 0.427
2 | CCN(C(c1ccc(F)cc1)C(F)(F)F)S(=O)(=O)c1ccc(C(=O)N(C)C)s1 (stereo not shown) [Example 25, 5-(N-ethyl-N-(2,2,2-trifluoro-1-(4-fluorophenyl)ethyl)sulfamoyl)-N,N-dimethylthiophene-2-carboxamide] | 0.282
3 | CN([C@@H](c1ccc(F)cc1)C(F)(F)F)S(=O)(=O)c1ccc(F)s1 (stereo in doubt) [Example 18, 5-fluoro-N-methyl-N-(2,2,2-trifluoro-1-(4-fluorophenyl)ethyl)thiophene-2-sulfonamide] | 11.7
4 | COc1cc(S(=O)(=O)N(C)[C@H](c2ccc(Cl)cc2)C(F)(F)F)c(OC)nn1 [Example 228, (R)—N-(1-(4-chlorophenyl)-2,2,2-trifluoroethyl)-3,6-dimethoxy-N-methylpyridazine-4-sulfonamide] | 0.891
5 | CCN([C@@H](c1ccc(OC)cc1)C(F)(F)F)S(=O)(=O)c1cncc(F)c1 [Example 256, (S)—N-ethyl-5-fluoro-N-(2,2,2-trifluoro-1-(4-methoxyphenyl)ethyl)pyridine-3-sulfonamide] | 4.27
6 | CN([C@H](c1ccc(F)cc1)C(F)(F)F)S(=O)(=O)c1cnc2ccnn2c1 [Example 183, (R)—N-methyl-N-(2,2,2-trifluoro-1-(4-fluorophenyl)ethyl)pyrazolo[1,5-a]pyrimidine-6-sulfonamide] | 0.24
7 | CCN([C@H](c1ccc(F)cc1)C(F)(F)F)S(=O)(=O)c1cc2ncccn2n1 [Example 148, (R)—N-ethyl-N-(2,2,2-trifluoro-1-(4-fluorophenyl)ethyl)pyrazolo[1,5-a]pyrimidine-2-sulfonamide] | 0.692
8 | CCN([C@H](c1ccc(F)cc1)C(F)(F)F)S(=O)(=O)c1ccn2nnnc2c1 [Example 158, (R)—N-ethyl-N-(2,2,2-trifluoro-1-(4-fluorophenyl)ethyl)tetrazolo[1,5-a]pyridine-7-sulfonamide] | 0.275
9 | CCN([C@H](c1ccc(F)cc1)C(F)(F)F)S(=O)(=O)c1nc2ccccn2c1Cl [Example 143, (R)-3-chloro-N-ethyl-N-(2,2,2-trifluoro-1-(4-fluorophenyl)ethyl)imidazo[1,2-a]pyridine-2-sulfonamide] | 4.17
10 | CCN([C@H](c1ccc(F)cc1)C(F)(F)F)S(=O)(=O)c1ccc(=O)n(C)c1 [Example 101, (R)—N-ethyl-1-methyl-6-oxo-N-(2,2,2-trifluoro-1-(4-fluorophenyl)ethyl)-1,6-dihydropyridine-3-sulfonamide] | 0.182
11 | CN([C@H](c1ccc(Cl)cc1)C(F)(F)F)S(=O)(=O)c1ccn2ccnc2c1 [Example 194, (R)—N-(1-(4-chlorophenyl)-2,2,2-trifluoroethyl)-N-methylimidazo[1,2-a]pyridine-7-sulfonamide] | 0.24
12 | CN([C@H](c1ccc(Cl)cc1)C(F)(F)F)S(=O)(=O)c1cnc2ccccn12 [Example 187, (R)—N-(1-(4-chlorophenyl)-2,2,2-trifluoroethyl)-N-methylimidazo[1,2-a]pyridine-3-sulfonamide] | 0.0191
13 | CCN([C@H](c1ccc(F)cc1)C(F)(F)F)S(=O)(=O)c1cnc2nsnc2c1 [Example 147, (R)—N-ethyl-N-(2,2,2-trifluoro-1-(4-fluorophenyl)ethyl)-[1,2,5]thiadiazolo[3,4-b]pyridine-6-sulfonamide] | 0.158
14 | CN([C@H](c1ccc(F)cc1)C(F)(F)F)S(=O)(=O)c1ccc(F)s1 (stereo in doubt) [Example 19, 5-fluoro-N-methyl-N-(2,2,2-trifluoro-1-(4-fluorophenyl)ethyl)thiophene-2-sulfonamide] | 2.4
15 | CCN([C@H](c1ccc(F)cc1)C(F)(F)F)S(=O)(=O)c1ccnc2[nH]ccc12 [Example 175, (R)—N-ethyl-N-(2,2,2-trifluoro-1-(4-fluorophenyl)ethyl)-1H-pyrrolo[2,3-b]pyridine-4-sulfonamide] | 0.302
16 | CCN([C@@H](c1ccc(F)cc1)C(F)(F)F)S(=O)(=O)c1ccc(=O)n(C)c1 [Example 102, (S)—N-ethyl-1-methyl-6-oxo-N-(2,2,2-trifluoro-1-(4-fluorophenyl)ethyl)-1,6-dihydropyridine-3-sulfonamide] | 6.76
17 | Cc1cc([C@@H](N(C)S(=O)(=O)c2cncc(C#N)c2)C(F)(F)F)ccc1C(F)(F)F [Example 269, (R)-5-cyano-N-methyl-N-(2,2,2-trifluoro-1-(3-methyl-4-(trifluoromethyl)phenyl)ethyl)pyridine-3-sulfonamide] | 0.302
18 | CCN([C@H](c1ccc(F)cc1)C(F)(F)F)S(=O)(=O)c1n[nH]c2cccnc12 [Example 174, (R)—N-ethyl-N-(2,2,2-trifluoro-1-(4-fluorophenyl)ethyl)-1H-pyrazolo[4,3-b]pyridine-3-sulfonamide] | 18.6
19 | CCN(C(c1ccc(F)cc1)C(F)(F)F)S(=O)(=O)c1cncc(C(N)=O)c1 (stereo in doubt) [Example 52, (S)-5-(N-ethyl-N-(2,2,2-trifluoro-1-(4-fluorophenyl)ethyl)sulfamoyl)nicotinamide] | 0.0955

Row | Compound | IC50 [µM]
20 | COc1ccc([C@@H](N(C)S(=O)(=O)c2ccc3nccn3c2)C(F)(F)F)cc1 [Example 203, (R)—N-methyl-N-(2,2,2-trifluoro-1-(4-methoxyphenyl)ethyl)imidazo[1,2-a]pyridine-6-sulfonamide] | 0.794
21 | CCN([C@H](c1ccc(F)cc1)C(F)(F)F)S(=O)(=O)c1cc2cc[nH]c2cn1 [Example 181, (R)—N-ethyl-N-(2,2,2-trifluoro-1-(4-fluorophenyl)ethyl)-1H-pyrrolo[2,3-c]pyridine-5-sulfonamide] | 0.537
22 | CN([C@H](c1ccc(F)cc1)C(F)(F)F)S(=O)(=O)c1cncc(F)c1 [Example 223, (R)-5-fluoro-N-methyl-N-(2,2,2-trifluoro-1-(4-fluorophenyl)ethyl)pyridine-3-sulfonamide] | 0.145
23 | N#Cc1cncc(S(=O)(=O)N(CCF)[C@H](c2ccc(F)cc2)C(F)(F)F)c1 [Example 66, (R)-5-cyano-N-(2-fluoroethyl)-N-(2,2,2-trifluoro-1-(4-fluorophenyl)ethyl)pyridine-3-sulfonamide] | 0.0407
24 | CCN([C@H](c1ccc(F)cc1)C(F)(F)F)S(=O)(=O)c1ccc2nc[nH]c2c1 [Example 185, (R)—N-ethyl-N-(2,2,2-trifluoro-1-(4-fluorophenyl)ethyl)-1H-benzo[d]imidazole-6-sulfonamide] | 0.155
25 | CCN([C@H](c1ccc(F)cc1)C(F)(F)F)S(=O)(=O)c1cnc2cccnn12 [Example 176, (R)—N-ethyl-N-(2,2,2-trifluoro-1-(4-fluorophenyl)ethyl)imidazo[1,2-b]pyridazine-3-sulfonamide] | 0.0912
26 | CCN(C(c1ccc(F)cc1)C(F)(F)F)S(=O)(=O)c1cncc(C(N)=O)c1 (stereo not shown) [Example 51, 5-(N-ethyl-N-(2,2,2-trifluoro-1-(4-fluorophenyl)ethyl)sulfamoyl)nicotinamide] | 0.372
27 | CCN(C(c1ccc(F)cc1)C(F)(F)F)S(=O)(=O)c1ccc(C#N)s1 (stereo not shown) [Example 21, 5-cyano-N-ethyl-N-(2,2,2-trifluoro-1-(4-fluorophenyl)ethyl)thiophene-2-sulfonamide] | 0.437
28 | CN(C(c1ccc(F)cc1)C(F)(F)F)S(=O)(=O)c1cncc(C#N)c1 (racemic) [Example 272, 5-Cyano-N-methyl-N-(2,2,2-trifluoro-1-(4-fluorophenyl)ethyl)pyridine-3-sulfonamide] | 0.155
29 | CCN(C(c1ccc(F)cc1)C(F)(F)F)S(=O)(=O)c1ccc(=O)n(C)c1 (stereo not shown) [Example 100, N-ethyl-1-methyl-6-oxo-N-(2,2,2-trifluoro-1-(4-fluorophenyl)ethyl)-1,6-dihydropyridine-3-sulfonamide] | 0.38
30 | Cc1ccc([C@@H](N(C)S(=O)(=O)c2cn3ccncc3n2)C(F)(F)F)cc1 [Example 197, (R)—N-methyl-N-(2,2,2-trifluoro-1-(p-tolyl)ethyl)imidazo[1,2-a]pyrazine-2-sulfonamide] | 6.17
31 | CN([C@@H](c1ccc(C(F)(F)F)cc1)C(F)(F)F)S(=O)(=O)c1cncc(C#N)c1 [Example 69, (S)-5-Cyano-N-methyl-N-(2,2,2-trifluoro-1-(4-(trifluoromethyl)phenyl)ethyl)pyridine-3-sulfonamide] | 5.62
32 | CN(C(c1ccc(F)cc1)C(F)(F)F)S(=O)(=O)c1ccc(F)s1 (stereo not shown) [Example 17, 5-fluoro-N-methyl-N-(2,2,2-trifluoro-1-(4-fluorophenyl)ethyl)thiophene-2-sulfonamide] | 3.63
33 | CN([C@H](c1ccc(Cl)cc1)C(F)(F)F)S(=O)(=O)c1cccnn1 [Example 209, (R)—N-(1-(4-chlorophenyl)-2,2,2-trifluoroethyl)-N-methylpyridazine-3-sulfonamide] | 0.191
34 | CCN([C@H](c1ccc(F)cc1)C(F)(F)F)S(=O)(=O)c1cnc(C#N)s1 [Example 84] | 0.871
35 | CN(C(c1ccc(F)cc1)C(F)(F)F)S(=O)(=O)c1ccc(Cl)s1 (stereo not shown) [Example 1, 5-chloro-N-methyl-N-(2,2,2-trifluoro-1-(4-fluorophenyl)ethyl)thiophene-2-sulfonamide] | 8.91
36 | CN([C@H](c1ccc(Cl)cc1)C(F)(F)F)S(=O)(=O)c1cnc2ncsc2c1 [Example 200, (R)—N-(1-(4-chlorophenyl)-2,2,2-trifluoroethyl)-N-methylthiazolo[4,5-b]pyridine-6-sulfonamide] | 0.282
37 | CCN([C@@H](c1ccc(F)cc1)C(F)(F)F)S(=O)(=O)c1cncc(F)c1 [Example 260, (S)—N-ethyl-5-fluoro-N-(2,2,2-trifluoro-1-(4-fluorophenyl)ethyl)pyridine-3-sulfonamide] | 3.55
